Test results taken from PubChem BioAssay (NCI).
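Step 1: Grow cells in 96-well plates. Step 2: Expose to compound for 48 hours at 5 concentrations. Step 3: Interpolate endpoints linearly; if unreached, use highest concentration. GI50: concentration for 50% inhibition of growth. The concentration for full growth arrest is given as TGI.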

Assays:
Test in all cases: NCI tumour cell line growth inhibition, 48 h
SF-295 CNS = tested on: SF-295 CNS
NCI-H23 lung = tested on: NCI-H23 lung
SK-MEL-5 melanoma = tested on: SK-MEL-5 melanoma
HL-60(TB) leukemia = tested on: HL-60(TB) leukemia
LOX IMVI melanoma = tested on: LOX IMVI melanoma
SNB-19 CNS = tested on: SNB-19 CNS
NCI/ADR-RES ovarian = tested on: NCI/ADR-RES ovarian
HCT-116 colon = tested on: HCT-116 colon
HOP-62 NSCLC = tested on: HOP-62 NSCLC
OVCAR-3 ovarian = tested on: OVCAR-3 ovarian
T-47D breast = tested on: T-47D breast
HOP-92 NSCLC = tested on: HOP-92 NSCLC
BT-549 breast = tested on: BT-549 breast
HT29 colon = tested on: HT29 colon
RXF 393 renal = tested on: RXF 393 renal
MDA-MB-468 breast = tested on: MDA-MB-468 breast
UACC-62 melanoma = tested on: UACC-62 melanoma
K-562 leukemia = tested on: K-562 leukemia
786-0 renal = tested on: 786-0 renal
CAKI-1 renal = tested on: CAKI-1 renal
MALME-3M melanoma = tested on: MALME-3M melanoma
NCI-H226 lung = tested on: NCI-H226 lung
MCF7 breast = tested on: MCF7 breast
A498 renal = tested on: A498 renal
DU-145 prostate = tested on: DU-145 prostate
PC-3 prostate = tested on: PC-3 prostate
HCT-15 colon = tested on: HCT-15 colon
ACHN renal = tested on: ACHN renal
MDA-MB-435 = tested on: MDA-MB-435
MDA-MB-231 breast = tested on: MDA-MB-231 breast
A549 NSCLC = tested on: A549 NSCLC
SN12C renal = tested on: SN12C renal
OVCAR-8 ovarian = tested on: OVCAR-8 ovarian
KM12 colon = tested on: KM12 colon
SF-268 CNS = tested on: SF-268 CNS
COLO 205 colon = tested on: COLO 205 colon
U251 CNS = tested on: U251 CNS
M14 melanoma = tested on: M14 melanoma
MOLT-4 leukemia = tested on: MOLT-4 leukemia
SW-620 colon = tested on: SW-620 colon
HCC-2998 colon = tested on: HCC-2998 colon
OVCAR-5 ovarian = tested on: OVCAR-5 ovarian
OVCAR-4 ovarian = tested on: OVCAR-4 ovarian
RPMI-8226 leukemia = tested on: RPMI-8226 leukemia
IGROV1 ovarian = tested on: IGROV1 ovarian
UO-31 renal = tested on: UO-31 renal
CCRF-CEM leukemia = tested on: CCRF-CEM leukemia
NCI-H460 lung = tested on: NCI-H460 lung
SNB-75 CNS = tested on: SNB-75 CNS
UACC-257 melanoma = tested on: UACC-257 melanoma
SK-OV-3 ovarian = tested on: SK-OV-3 ovarian
NCI-H522 lung = tested on: NCI-H522 lung
TK-10 renal = tested on: TK-10 renal
EKVX NSCLC = tested on: EKVX NSCLC
SK-MEL-28 melanoma = tested on: SK-MEL-28 melanoma
SF-539 CNS = tested on: SF-539 CNS
SK-MEL-2 melanoma = tested on: SK-MEL-2 melanoma
SR leukemia = tested on: SR leukemia
HS 578T breast = tested on: HS 578T breast

Work on `O=C(N/N=C/c1ccsc1)c1[nH]c2ccc(Br)cc2c1-c1ccccc1` yielded a GI50 (SF-295 CNS) of 189 nM, a TGI (SF-295 CNS) of 13800 nM and a GI50 (NCI-H23 lung) of 696 nM. The TGI (NCI-H23 lung) was 18900 nM, the GI50 (SK-MEL-5 melanoma) was 260 nM and the TGI (SK-MEL-5 melanoma) was 1830 nM. The GI50 (HL-60(TB) leukemia) was 199 nM, the TGI (HL-60(TB) leukemia) was 656 nM and the GI50 (LOX IMVI melanoma) was 217 nM. The TGI (LOX IMVI melanoma) was 13300 nM, the GI50 (SNB-19 CNS) was 1840 nM and the TGI (SNB-19 CNS) was 66400 nM. It also gave a GI50 (NCI/ADR-RES ovarian) of 173 nM, a TGI (NCI/ADR-RES ovarian) of 549 nM and a GI50 (HCT-116 colon) of 190 nM. It also gave a TGI (HCT-116 colon) of 4410 nM, a GI50 (HOP-62 NSCLC) of 512 nM and a TGI (HOP-62 NSCLC) of 18100 nM. For the same compound, the GI50 (OVCAR-3 ovarian) was 202 nM, the TGI (OVCAR-3 ovarian) was 12600 nM and the GI50 (T-47D breast) was 3120 nM. For the same compound, the TGI (T-47D breast) was 48500 nM, the GI50 (HOP-92 NSCLC) was 2440 nM and the TGI (HOP-92 NSCLC) was 25000 nM. The GI50 (BT-549 breast) was 317 nM, the TGI (BT-549 breast) was 1950 nM and the GI50 (HT29 colon) was 272 nM. It also gave a TGI (HT29 colon) of 4750 nM, a GI50 (RXF 393 renal) of 287 nM and a TGI (RXF 393 renal) of 26700 nM. The GI50 (MDA-MB-468 breast) was 255 nM, the TGI (MDA-MB-468 breast) was 3890 nM and the GI50 (UACC-62 melanoma) was 299 nM. For the same compound, the TGI (UACC-62 melanoma) was 16000 nM, the GI50 (K-562 leukemia) was 103 nM and the TGI (K-562 leukemia) was greater than 44000 nM. For the same compound, the GI50 (786-0 renal) was 509 nM, the TGI (786-0 renal) was 17700 nM and the GI50 (CAKI-1 renal) was 315 nM. It also gave a TGI (CAKI-1 renal) of 25000 nM, a GI50 (MALME-3M melanoma) of 6990 nM and a TGI (MALME-3M melanoma) of 26100 nM. For the same compound, the GI50 (NCI-H226 lung) was 1750 nM, the TGI (NCI-H226 lung) was 27600 nM and the GI50 (MCF7 breast) was 132 nM. It also gave a TGI (MCF7 breast) of 13400 nM, a GI50 (A498 renal) of 19500 nM and a TGI (A498 renal) of 46500 nM. The GI50 (DU-145 prostate) was 435 nM, the TGI (DU-145 prostate) was 32900 nM and the GI50 (PC-3 prostate) was 612 nM. The TGI (PC-3 prostate) was 24000 nM, the GI50 (HCT-15 colon) was 256 nM and the TGI (HCT-15 colon) was 12800 nM. The GI50 (ACHN renal) was 585 nM, the TGI (ACHN renal) was 27700 nM and the GI50 (MDA-MB-435) was 76.4 nM. For the same compound, the TGI (MDA-MB-435) was 525 nM, the GI50 (MDA-MB-231 breast) was 792 nM and the TGI (MDA-MB-231 breast) was 13100 nM. It also gave a GI50 (A549 NSCLC) of 460 nM, a TGI (A549 NSCLC) greater than 100000 nM and a GI50 (SN12C renal) of 473 nM. It also gave a TGI (SN12C renal) of 12500 nM, a GI50 (OVCAR-8 ovarian) of 313 nM and a TGI (OVCAR-8 ovarian) of 10300 nM. The GI50 (KM12 colon) was 327 nM, the TGI (KM12 colon) was 14100 nM and the GI50 (SF-268 CNS) was 817 nM. The TGI (SF-268 CNS) was 17900 nM, the GI50 (COLO 205 colon) was 353 nM and the TGI (COLO 205 colon) was 1970 nM. For the same compound, the GI50 (U251 CNS) was 724 nM, the TGI (U251 CNS) was 18900 nM and the GI50 (M14 melanoma) was 267 nM. The TGI (M14 melanoma) was 13100 nM, the GI50 (MOLT-4 leukemia) was 386 nM and the TGI (MOLT-4 leukemia) was 18400 nM. The GI50 (SW-620 colon) was 204 nM, the TGI (SW-620 colon) was 19100 nM and the GI50 (HCC-2998 colon) was 399 nM. It also gave a TGI (HCC-2998 colon) of 13000 nM, a GI50 (OVCAR-5 ovarian) of 563 nM and a TGI (OVCAR-5 ovarian) of 22500 nM. The GI50 (OVCAR-4 ovarian) was 6100 nM, the TGI (OVCAR-4 ovarian) was greater than 66600 nM and the GI50 (RPMI-8226 leukemia) was 236 nM. For the same compound, the TGI (RPMI-8226 leukemia) was 16600 nM, the GI50 (IGROV1 ovarian) was 600 nM and the TGI (IGROV1 ovarian) was 15600 nM. For the same compound, the GI50 (UO-31 renal) was 578 nM, the TGI (UO-31 renal) was 24200 nM and the GI50 (CCRF-CEM leukemia) was 228 nM. It also gave a TGI (CCRF-CEM leukemia) of 21700 nM, a GI50 (NCI-H460 lung) of 156 nM and a TGI (NCI-H460 lung) of 10600 nM. The GI50 (SNB-75 CNS) was 234 nM, the TGI (SNB-75 CNS) was 21500 nM and the GI50 (UACC-257 melanoma) was 6930 nM. The TGI (UACC-257 melanoma) was 41300 nM, the GI50 (SK-OV-3 ovarian) was 2050 nM and the TGI (SK-OV-3 ovarian) was 27200 nM. For the same compound, the GI50 (NCI-H522 lung) was 163 nM, the TGI (NCI-H522 lung) was 699 nM and the GI50 (TK-10 renal) was 13500 nM. It also gave a TGI (TK-10 renal) of 85000 nM, a GI50 (EKVX NSCLC) of 872 nM and a TGI (EKVX NSCLC) of 29300 nM. It also gave a GI50 (SK-MEL-28 melanoma) of 4190 nM, a TGI (SK-MEL-28 melanoma) of 22600 nM and a GI50 (SF-539 CNS) of 190 nM. For the same compound, the TGI (SF-539 CNS) was 943 nM, the GI50 (SK-MEL-2 melanoma) was 764 nM and the TGI (SK-MEL-2 melanoma) was 20000 nM. It also gave a GI50 (SR leukemia) of 255 nM, a TGI (SR leukemia) of 63500 nM and a GI50 (HS 578T breast) of 202 nM. It also gave a TGI (HS 578T breast) of 13200 nM.
